What was measured:
ZR-75-1 = assay: Growth inhibition of human Zr-75-1 cells by SRB method; format: functional
MCF7 = assay: Growth inhibition of human MCF7 cells by SRB method; format: functional
KB = assay: Growth inhibition of human KB cells by SRB method; format: functional
[1] = Growth inhibition of human Gurav cells by SRB method; format: functional
[2] = Growth inhibition of human DWD cells by SRB method; format: functional
A2780 = assay: Growth inhibition of human A2780 cells by SRB method; format: functional
COLO 205 = assay: Growth inhibition of human Colo205 cells by SRB method; format: functional
A549 = assay: Growth inhibition of human A549 cells by SRB method; format: functional
PC-3 = assay: Growth inhibition of human PC3 cells by SRB method; format: functional
SiHa = assay: Growth inhibition of human SiHa cells by SRB method; format: functional
DNA = assay: Binding affinity to calf thymus DNA assessed as helix melting temperature at 20 uM after 18 hrs; format: nucleic-acid assay; settings: Bos taurus

COc1cccc2c1C(=O)c1c(O)c3c(c(O)c1C2=O)C[C@@](O)(C(=O)CO)C[C@@H]3O[C@H]1C[C@H](N)[C@H](O)[C@H](C)O1 [DOXORUBICIN]
GI50 (ZR-75-1): 1790 nM
GI50 (MCF7): 180 nM
GI50 (KB): 170 nM
GI50 [1]: 170 nM
GI50 [2]: 100 nM
GI50 (A2780): 170 nM
GI50 (COLO 205): 150 nM
GI50 (A549): 7250 nM
GI50 (PC-3): 1810 nM
GI50 (SiHa): 180 nM

COc1cc2c(cc1O)N=C[C@@H]1CCCN1C2=O
ΔTm (DNA): 0.7 °C
GI50 (ZR-75-1): 2370 nM
GI50 (MCF7): 170 nM
GI50 (KB): 170 nM
GI50 [1]: 160 nM
GI50 [2]: 1490 nM
GI50 (A2780): 140 nM
GI50 (COLO 205): 110 nM
GI50 (A549): 160 nM
GI50 (PC-3): 200 nM
GI50 (SiHa): 170 nM

COC(=O)c1nnn(CCCCOc2cc3c(cc2OC)C(=O)N2CCC[C@H]2C=N3)c1C(=O)OC
ΔTm (DNA): 0 °C
GI50 (ZR-75-1): 2120 nM
GI50 (MCF7): 30500 nM
GI50 (KB): 2360 nM
GI50 [1]: 2390 nM
GI50 [2]: 2240 nM
GI50 (A2780): 130 nM
GI50 (COLO 205): 210 nM
GI50 (A549): 28700 nM
GI50 (PC-3): 25400 nM
GI50 (SiHa): 2040 nM

COC(=O)c1nnn(CCCCCOc2cc3c(cc2OC)C(=O)N2CCC[C@H]2C=N3)c1C(=O)OC
ΔTm (DNA): 3.6 °C
GI50 (ZR-75-1): 1930 nM
GI50 (KB): 7190 nM
GI50 [1]: 26800 nM
GI50 [2]: 26000 nM
GI50 (A2780): 26000 nM
GI50 (COLO 205): 2170 nM
GI50 (A549): 6120 nM
GI50 (PC-3): 29100 nM
GI50 (SiHa): 2150 nM

COC(=O)c1nnn([C@H]2C[C@H]3C=Nc4cc(OC)c(OC)cc4C(=O)N3C2)c1C(=O)OC
ΔTm (DNA): 2.8 °C
GI50 (ZR-75-1): 2470 nM
GI50 (MCF7): 2170 nM
GI50 (KB): 26400 nM
GI50 [1]: 2390 nM
GI50 [2]: 2260 nM
GI50 (A2780): 914 nM
GI50 (COLO 205): 1090 nM
GI50 (PC-3): 2230 nM
GI50 (SiHa): 210 nM

COC(=O)c1nnn(CCCCCOc2cc3c(cc2OC)C(=O)N2C[C@@H](n4nnc(C(=O)OC)c4C(=O)OC)C[C@H]2C=N3)c1C(=O)OC
ΔTm (DNA): 5.9 °C
GI50 (ZR-75-1): 5510 nM
GI50 (MCF7): 2050 nM
GI50 (KB): 1920 nM
GI50 [1]: 1820 nM
GI50 [2]: 150 nM
GI50 (A2780): 160 nM
GI50 (COLO 205): 1920 nM
GI50 (A549): 2410 nM
GI50 (PC-3): 170 nM
GI50 (SiHa): 120 nM

COC(=O)c1nnn(CCCOc2cc3c(cc2OC)C(=O)N2C[C@@H](n4nnc(C(=O)OC)c4C(=O)OC)C[C@H]2C=N3)c1C(=O)OC
ΔTm (DNA): 4.5 °C
GI50 (MCF7): 2120 nM
GI50 (KB): 1050 nM
GI50 [1]: 2420 nM
GI50 (A2780): 190 nM
GI50 (COLO 205): 2010 nM
GI50 (A549): 7120 nM
GI50 (SiHa): 2170 nM

COC(=O)c1nnn(CCCCOc2cc3c(cc2OC)C(=O)N2C[C@@H](n4nnc(C(=O)OC)c4C(=O)OC)C[C@H]2C=N3)c1C(=O)OC
ΔTm (DNA): 0 °C

COC(=O)c1nnn([C@H]2C[C@H]3C=Nc4cc(OCc5ccccc5)c(OC)cc4C(=O)N3C2)c1C(=O)OC
ΔTm (DNA): 2.2 °C
GI50 (MCF7): 27600 nM
GI50 [2]: 29700 nM
GI50 (A2780): 25800 nM
GI50 (COLO 205): 27900 nM
GI50 (SiHa): 2040 nM

COC(=O)c1nnn(CCCOc2cc3c(cc2OC)C(=O)N2CCC[C@H]2C=N3)c1C(=O)OC
ΔTm (DNA): 3.1 °C
GI50 (ZR-75-1): 2530 nM
GI50 (KB): 26600 nM
GI50 [1]: 25100 nM
GI50 [2]: 25500 nM
GI50 (A2780): 2480 nM
GI50 (COLO 205): 2090 nM
GI50 (A549): 24700 nM
GI50 (PC-3): 28700 nM
GI50 (SiHa): 2120 nM

COC(=O)c1nnn([C@H]2C[C@H]3C=Nc4ccccc4C(=O)N3C2)c1C(=O)OC
ΔTm (DNA): 2.3 °C
